pIC50: −log10 of the molar value.
Experiments:
[1] = test system: IL-1β release upon NLRP3 activation in human whole blood; assay: Whole blood (WB) assay (IL-1β release, LPS priming + ATP stimulation, HTRF); assay type: cell-based; conditions: heparin, diluted 9:5 with media, LPS 1 μg/ml 3 h, compound 30 min, ATP 5 mM 1 h, IL-1β by HTRF
Experimental: The compounds of the present disclosure were tested for their inhibitory activity against IL-1β release upon NLRP3 activation in human whole blood.
Whole blood was drawn from single healthy donors and treated with sodium heparin anticoagulant. Blood was diluted with cell culture media at a 9:5 ratio, seeded in a 96-well plate and incubated for 3 h with lipopolysaccharide (LPS, 1 μg/ml final concentration diluted 1000× from a 1 mg/ml stock solution). The compounds of the present disclosure were added (a single compound concentration per well) and the blood was incubated for 30 min. Next, the blood was stimulated with ATP (5 mM final concentration diluted 20× from a 100 mM stock solution) for 1 h and the cell culture media from the wells were collected for further analysis.
The release of IL-1β into the media was determined by quantitative detection of IL-1β in the media using HTRF®, CisBio cat. No. 62HIL1BPEH. Briefly, cell culture supernatant were diluted as appropriate to bring IL-1β levels within the HTRF® detection range ([…]) and subsequently dispensed into the assay plate containing antibodies labelled with the HTRF® donor and acceptor. A microplate spectrophotometer (BMG) was used to detect signals at 655 nm and 620 nm.

[2] = test system: IL-1β release upon NLRP3 activation in peripheral blood mononuclear cells (PBMC); assay: PBMC IC50 determination assay (IL-1β release, LPS priming + ATP stimulation, HTRF); assay type: cell-based; conditions: PBMC from buffy coats; LPS 1 μg/ml 3 h, compound 30 min, ATP 5 mM 1 h; IL-1β by HTRF
Experimental: The compounds of the present disclosure were tested for their inhibitory activity against IL-1β release upon NLRP3 activation in peripheral blood mononuclear cells (PBMC).
PBMC were isolated from buffy coats by density gradient centrifugation on Histopaque-1077 (Sigma, cat no. 10771). Isolated cells were seeded into the wells (280,000 cells/well) of a 96-well plate and incubated for 3 h with lipopolysaccharide (LPS, 1 μg/ml diluted 1000× from a 1 mg/ml stock solution). The compounds of the present disclosure were added (a single compound per well) and the cells were incubated for 30 min. Next, the cells were stimulated with ATP (5 mM final concentration diluted 20× from a 100 mM stock solution) for 1 h and the cell culture media from the wells were collected for further analysis.
The release of IL-1β into the media was determined by quantitative detection of IL-1β in the media using HTRF®, CisBio cat. No. 62HIL1BPEH. Briefly, cell culture supernatant were dispensed directly into the assay plate containing antibodies labelled with the HTRF® donor and acceptor. A microplate spectrophotometer (BMG) was used to detect signals at 655 nm and 620 nm. The detection range of IL-1β HTRF® was […].

pIC50 [1]	Compound	pIC50 [2]
5.00 to 5.52	Cc1cc(NC(=O)NS(=O)(=O)N(c2cnn(C)c2)C2CCOCC2)c(C)s1 [Compound 2, 3-(2,5-Dimethylthiophen-3-yl)-1-[(1-methyl-1H-pyrazol-4-yl)(oxan-4-yl)sulfamoyl]urea]	6.00 to 6.30
5.52 to 6.00	CCc1cc(NC(=O)NS(=O)(=O)N(C[C@@H]2C[C@@H](F)CN2C)c2cnn(C)c2)c(CC)o1 [Compound 62, 1-(2,5-Diethylfuran-3-yl)-3-({[(2S,4R)-4-fluoro-1-methylpyrrolidin-2-yl]methyl}(1-methyl-1H-pyrazol-4-yl)sulfamoyl)urea]	6.00 to 6.30
< 4.70	Cn1cc(N(C2CCOCC2)S(=O)(=O)NC(=O)Nc2cc(Cl)sc2Cl)cn1 [Compound 5, 3-(2,5-Dichlorothiophen-3-yl)-1-[(1-methyl-1H-pyrazol-4-yl)(oxan-4-yl)sulfamoyl]urea]	5.00 to 5.30
5.52 to 6.00	CC(C)c1cc(NC(=O)NS(=O)(=O)N(CCN(C)C)c2cnn(C)c2)c(C(C)C)s1 [Compound 18, 3-[2,5-Bis(propan-2-yl)thiophen-3-yl]-1-{[2-(dimethylamino)ethyl](1-methyl-1H-pyrazol-4-yl)sulfamoyl}urea]	6.30 to 7.00
5.52 to 6.00	Cc1sc2c(c1NC(=O)NS(=O)(=O)N(c1cnn(C)c1)C1CCN(C)CC1)CCC2 [Compound 109, 1-[(1-Methyl-1H-pyrazol-4-yl)(1-methylpiperidin-4-yl)sulfamoyl]-3-{2-methyl-4H,5H,6H-cyclopenta[b]thiophen-3-yl}urea]	6.30 to 7.00
> 6.00	Cc1cc(NC(=O)NS(=O)(=O)N(c2cnn(C)c2)C2CCN(C)CC2)c(C(C)C)s1 [Compound 100, 1-[(1-Methyl-1H-pyrazol-4-yl)(1-methylpiperidin-4-yl)sulfamoyl]-3-[5-methyl-2-(propan-2-yl)thiophen-3-yl]urea]	6.30 to 7.00
5.52 to 6.00	CC(C)c1cc(NC(=O)NS(=O)(=O)N(C[C@@H]2C[C@@H](F)CN2C)c2cnn(C)c2)c(C(C)C)s1 [Compound 53]	> 7.00
5.52 to 6.00	Cc1sc2c(c1NC(=O)NS(=O)(=O)N(c1cnn(C)c1)[C@H]1C[C@H](F)CN(C)C1)CCC2 [Compound 110, 1-{[(3S,5S)-5-Fluoro-1-methylpiperidin-3-yl](1-methyl-1H-pyrazol-4-yl)sulfamoyl}-3-{2-methyl-4H,5H,6H-cyclopenta[b]thiophen-3-yl}urea]	6.30 to 7.00
> 6.00	CC(C)c1cc(NC(=O)NS(=O)(=O)N(c2cnn(C3CC3)c2)[C@H]2CCCN(C)C2)c(C(C)C)s1 [Compound 91, 3-[2,5-Bis(propan-2-yl)thiophen-3-yl]-1-[(1-cyclopropyl-1H-pyrazol-4-yl)[(3S)-1-methylpiperidin-3-yl]sulfamoyl]urea]	> 7.00
5.52 to 6.00	Cc1cc(NC(=O)NS(=O)(=O)N(c2cnn(C3CC3)c2)[C@@H]2CCCN(C)C2)c(C2CC2)s1 [Compound 106, 1-[(1-Cyclopropyl-1H-pyrazol-4-yl)[(3R)-1-methylpiperidin-3-yl]sulfamoyl]-3-(2-cyclopropyl-5-methylthiophen-3-yl)urea]	6.30 to 7.00
	Cc1cc(NC(=O)NS(=O)(=O)N(c2cnn(C3CC3)c2)[C@H]2CCCN(C)C2)c(C2CC2)s1 [Compound 105, 1-[(1-Cyclopropyl-1H-pyrazol-4-yl)[(3S)-1-methylpiperidin-3-yl]sulfamoyl]-3-(2-cyclopropyl-5-methylthiophen-3-yl)urea]	6.30 to 7.00
> 6.00	CC(C)c1sc(Cl)cc1NC(=O)NS(=O)(=O)N(c1cnn(C)c1)[C@H]1CCCN(C)C1 [Compound 80, 3-[5-Chloro-2-(propan-2-yl)thiophen-3-yl]-1-[(1-methyl-1H-pyrazol-4-yl)[(3S)-1-methylpiperidin-3-yl]sulfamoyl]urea]	> 7.00
> 6.00	Cc1sc2c(c1NC(=O)NS(=O)(=O)N(c1cnn(C)c1)C1CCCN(C)C1)CCC2 (stereo not drawn) [Compound 32, 1-[(1-Methyl-1H-pyrazol-4-yl)(1-methylpiperidin-3-yl)sulfamoyl]-3-{2-methyl-4H,5H,6H-cyclopenta[b]thiophen-3-yl}urea]	6.30 to 7.00
5.52 to 6.00	CCc1cc(NC(=O)NS(=O)(=O)N(CCN(C)C)c2cnn(C)c2)c(CC)s1 [Compound 19, 3-(2,5-Diethylthiophen-3-yl)-1-{[2-(dimethylamino)ethyl](1-methyl-1H-pyrazol-4-yl)sulfamoyl}urea]	6.30 to 7.00
5.52 to 6.00	CCc1sc2c(c1NC(=O)NS(=O)(=O)N(c1cnn(C)c1)C1CCCN(C)C1)CCCC2 (stereo not drawn) [Compound 86, 3-(2-Ethyl-4,5,6,7-tetrahydro-1-benzothiophen-3-yl)-1-[(1-methyl-1H-pyrazol-4-yl)(1-methylpiperidin-3-yl)sulfamoyl]urea]	6.30 to 7.00
> 6.00	Cc1sc2c(c1NC(=O)NS(=O)(=O)N(c1cnn(C)c1)C1CCCN(C)C1)CCCC2 (stereo not drawn) [Compound 97, 1-[(1-Methyl-1H-pyrazol-4-yl)(1-methylpiperidin-3-yl)sulfamoyl]-3-(2-methyl-4,5,6,7-tetrahydro-1-benzothiophen-3-yl)urea]	6.30 to 7.00
> 6.00	Cc1cc(NC(=O)NS(=O)(=O)N(c2cnn(C)c2F)C2CCN(C)CC2)c(C(C)C)s1 [Compound 101, 1-[(5-Fluoro-1-methyl-1H-pyrazol-4-yl)(1-methylpiperidin-4-yl)sulfamoyl]-3-[5-methyl-2-(propan-2-yl)thiophen-3-yl]urea]	> 7.00
5.52 to 6.00	Cc1cc(NC(=O)NS(=O)(=O)N(c2cnn(C)c2)[C@H]2CCCN(C)C2)c(C2CC2)s1 [Compound 107, 3-(2-Cyclopropyl-5-methylthiophen-3-yl)-1-[(1-methyl-1H-pyrazol-4-yl)[(3S)-1-methylpiperidin-3-yl]sulfamoyl]urea]	6.30 to 7.00
5.52 to 6.00	CC(C)c1cc(NC(=O)NS(=O)(=O)N(c2cnn(C3CC3)c2F)C2CCCN(C)C2)c(C(C)C)s1 (stereo not drawn) [Compound 99, 3-[2,5-Bis(propan-2-yl)thiophen-3-yl]-1-[(1-cyclopropyl-5-fluoro-1H-pyrazol-4-yl)(1-methylpiperidin-3-yl)sulfamoyl]urea]	> 7.00
> 6.00	Cc1cc(NC(=O)NS(=O)(=O)N(c2cnn(C)c2)[C@@H]2CCCN(C)C2)c(C(C)C)s1 [Compound 66, 1-[(1-Methyl-1H-pyrazol-4-yl)[(3R)-1-methylpiperidin-3-yl]sulfamoyl]-3-[5-methyl-2-(propan-2-yl)thiophen-3-yl]urea]	> 7.00
	CCc1cc(NC(=O)NS(=O)(=O)N(CC2CCCO2)c2cnn(C)c2)c(CC)o1 (stereo not drawn) [Compound 74, 1-(2,5-Diethylfuran-3-yl)-3-[(1-methyl-1H-pyrazol-4-yl)[(oxolan-2-yl)methyl]-sulfamoyl]urea]	5.30 to 6.00
	CCc1cc(NC(=O)NS(=O)(=O)N(CCN(C)C)c2cnn(C)c2)c(CC)o1 [Compound 72, 3-(2,5-Diethylfuran-3-yl)-1-{[2-(dimethylamino)ethyl](1-methyl-1H-pyrazol-4-yl)sulfamoyl}urea]	5.30 to 6.00
	CCc1cc(NC(=O)NS(=O)(=O)N(C[C@@H]2C[C@@H](F)CN2C)c2cnn(C(C)C)c2)c(CC)o1 [Compound 63, 3-(2,5-Diethylfuran-3-yl)-1-({[(2S,4R)-4-fluoro-1-methylpyrrolidin-2-yl]methyl}[1-(propan-2-yl)-1H-pyrazol-4-yl]sulfamoyl)urea]	5.30 to 6.00
	Cc1csc(NC(=O)NS(=O)(=O)N(c2cnn(C)c2)C2CCCN(C)C2)c1C (stereo not drawn) [Compound 17, 3-(3,4-Dimethylthiophen-2-yl)-1-[(1-methyl-1H-pyrazol-4-yl)(1-methyl-piperidin-3-yl)sulfamoyl]urea]	5.00 to 5.30
	CCc1cc(NC(=O)NS(=O)(=O)N(C2CCOCC2)C2CCCN(C)C2)c(CC)s1 (stereo not drawn) [Compound 68, 3-(2,5-Diethylthiophen-3-yl)-1-[(1-methylpiperidin-3-yl)(oxan-4-yl)sulfamoyl]-urea]	5.00 to 5.30
	CCc1nc(NC(=O)NS(=O)(=O)N(c2cnn(C)c2)C2CCCN(C)C2)c(CC)s1 (stereo not drawn) [Compound 31, 3-(2,5-Diethyl-1,3-thiazol-4-yl)-1-[(1-methyl-1H-pyrazol-4-yl)(1-methyl-piperidin-3-yl)sulfamoyl]urea]	5.00 to 5.30
